Results as given in patent publication US12005050B2, “Methods for preventing or treating H. pylori infection” (TENNOR THERAPEUTICS (SUZHOU) LIMITED, priority 2022, dated 2024).

Assay: Safety tolerance assessment, adverse events (Example 1)
Assay type: in vivo, human
Experimental: 40 asymptomatic healthy patients that are positive for Helicobacter pylori infection were admitted to the trial. The 40 patients were randomly allocated to four groups at a ratio of 1:1:1:1.
Different therapies were administered to the patients of each group according to the schedule below: • Group A: • Compound I capsule 200 mg/time (2 capsules, 100 mg/capsule), twice per day (BID); rabeprazole sodium enteric-coated tablet 20 mg/time (1 tablet, 20 mg/tablet), twice per day (BID) • Group B: • Compound I capsule 400 mg/time (4 capsules, 100 mg/capsule), twice per day (BID); rabeprazole sodium enteric-coated tablet 20 mg/time (1 tablet, 20 mg/tablet), twice per day (BID) • Group C: • Compound I capsule 600 mg/time (6 capsules, 100 mg/capsule), twice per day (BID); rabeprazole sodium enteric-coated tablet 20 mg/time (1 tablet, 20 mg/tablet), twice per day (BID) • Group D: • Compound I capsule 400 mg/time (4 capsules, 100 mg/capsule), twice per day (BID); rabeprazole sodium enteric-coated tablet 20 mg/time (1 tablet, 20 mg/tablet), twice per day (BID); amoxicillin capsule 1 g/time (4 capsules, 0.25 g/capsule), twice per day (BID)
All patients were admitted to the clinical research center 1 day before dosing (D-1 Day), randomly allocated to respective groups and completed examinations for safety and baseline indicators. From day 1 to day 14, respective therapies/drugs were orally administered to the patients within 30 minutes after breakfast and dinner. On day 15, the last dose was administered orally to the patients within 30 minutes after breakfast. During the trial, each patient was dosed for 29 times in total. All patients left the hospital after completing a safety tolerance assessment on day 17 and returned to the clinical research center for urea breath test (UBT) follow-up examination between days 44 and 50 to evaluate the effect of Helicobacter pylori eradication.
The safety tolerance assessment incudes assessment of adverse events (AE), serious adverse events (SAE), drug-related AEs, and AEs leading to withdrawal.
The number and incidence of all adverse events were summarized according to the respective trial group, systemic organ classification and preferred terminology.
By trial group, according to the CTCA 5.0 rating, the list describes the incidence of adverse events in each trial group (occurred in each trial group alone, in 2 groups or 3 groups).
By trial group, the mean, standard deviation, median, minimum and maximum values of vital signs (blood pressure, breathing, pulse and body temperature) and laboratory indicators before and after drug administration were calculated, and when necessary, paired t-test or non-parametric test were used for before-and-after comparison.
SAE and Suspected Unintended Serious Adverse Reactions (SUSAR) were listed separately.

[1] = Group A: Compound I 200 mg BID + rabeprazole sodium 20 mg BID
[2] = Group A: Compound I 200 mg BID + rabeprazole sodium 20 mg BID, N = 10
[3] = Group B: Compound I 400 mg BID + rabeprazole sodium 20 mg BID
[4] = Group B: Compound I 400 mg BID + rabeprazole sodium 20 mg BID, N = 10
[5] = Group C: Compound I 600 mg BID + rabeprazole sodium 20 mg BID
[6] = Group C: Compound I 600 mg BID + rabeprazole sodium 20 mg BID, N = 10
[7] = Group D: Compound I 400 mg BID + rabeprazole sodium 20 mg BID + amoxicillin 1 g BID
[8] = Group D: Compound I 400 mg BID + rabeprazole sodium 20 mg BID + amoxicillin 1 g BID, N = 10

## CO[C@H]1/C=C/O[C@@]2(C)Oc3c(C)c(O)c4c(c3C2=O)C2=NC3(CCN(CCn5c([N+](=O)[O-])cnc5C)CC3)NC2=C(NC(=O)/C(C)=C\C=C\[C@H](C)[C@H](O)[C@@H](C)[C@@H](O)[C@@H](C)[C@H](OC(C)=O)[C@@H]1C)C4=O [Compound I, 4-Deoxy-3,4-[2-spiro-[1-[2-(2-methyl-5-nitro-imidazol-1-yl)ethyl]-piperidin-4-yl]]-(1H)-imidazo-(2,5-dihydro)rifamycin]
[1]
  Elevated serum creatinine, number of cases: 4 cases
  Incidence of elevated serum creatinine (common AE associated with the combination therapy): 30%
  Incidence of hyperglycemia (common AE associated with the combination therapy): 20%
[2]
  Drug related TEAE (patients/episodes): (6/18)
  Incidence of AEs: Drug related TEAE: 60%
  Incidence of AEs: TEAE: 60%
  TEAE (patients/episodes): (6/18)
[3]
  Elevated serum creatinine, number of cases: 1 case
  Grade 3 AEs: 3
  Incidence of elevated hemobilirubin (common AE associated with the combination therapy): Group B: elevated hemobilirubin (20%), hyperglycemia (20%);
  Incidence of hyperglycemia (common AE associated with the combination therapy): Group B: elevated hemobilirubin (20%), hyperglycemia (20%);
[4]
  Drug related TEAE (patients/episodes): (7/9)
  Incidence of AEs: Drug related TEAE: 70%
  Incidence of AEs: TEAE: 80%
  TEAE (patients/episodes): (8/12)
[5]
  Common adverse events with incidence of ≥15% associated with the combination therapy: Group C: absent;
  Elevated serum creatinine, number of cases: 2 cases
[6]
  Drug related TEAE (patients/episodes): (5/8)
  Incidence of AEs: Drug related TEAE: 50%
  Incidence of AEs: TEAE: 50%
  TEAE (patients/episodes): (5/8)
[7]
  Elevated serum creatinine, number of cases: 2 cases
  Incidence of elevated alanine aminotransferase (common AE associated with the combination therapy): Group D: elevated alanine aminotransferase (20%), elevated aspartic acid aminotransferase (20%), hypertriglyceridemia (20%), hyperuricemia (20%), rash (20%), papules (20%).
  Incidence of elevated aspartic acid aminotransferase (common AE associated with the combination therapy): Group D: elevated alanine aminotransferase (20%), elevated aspartic acid aminotransferase (20%), hypertriglyceridemia (20%), hyperuricemia (20%), rash (20%), papules (20%).
  Incidence of hypertriglyceridemia (common AE associated with the combination therapy): Group D: elevated alanine aminotransferase (20%), elevated aspartic acid aminotransferase (20%), hypertriglyceridemia (20%), hyperuricemia (20%), rash (20%), papules (20%).
  Incidence of hyperuricemia (common AE associated with the combination therapy): Group D: elevated alanine aminotransferase (20%), elevated aspartic acid aminotransferase (20%), hypertriglyceridemia (20%), hyperuricemia (20%), rash (20%), papules (20%).
  Incidence of papules (common AE associated with the combination therapy): Group D: elevated alanine aminotransferase (20%), elevated aspartic acid aminotransferase (20%), hypertriglyceridemia (20%), hyperuricemia (20%), rash (20%), papules (20%).
  Incidence of rash (common AE associated with the combination therapy): Group D: elevated alanine aminotransferase (20%), elevated aspartic acid aminotransferase (20%), hypertriglyceridemia (20%), hyperuricemia (20%), rash (20%), papules (20%).
[8]
  Drug related TEAE (patients/episodes): (7/17)
  Incidence of AEs: Drug related TEAE: 70%
  Incidence of AEs: TEAE: 80%
  TEAE (patients/episodes): (8/19)
Total, Groups A-D
  Decrease in renal creatinine clearance, incidence rate: 7.5%
  Drug-related AEs of grade 1: 45
  Drug-related AEs of grade 2: 6 cases
  Drug-related skin abnormalities (rash, papules, itching), number of cases: 8 cases
  Elevated serum creatinine, incidence rate: 15%
  Elevated serum creatinine, number of cases: 9 cases
  Grade 1 adverse events (CTC AE 5.0), number of cases: 46 cases
  Grade 2 adverse events (CTC AE 5.0), number of cases: 10 cases
  Hyperglycemia (unexpected adverse reaction), incidence: 12.5%
  Skin abnormalities, number of cases: 10 cases
  Unexpected adverse reactions, incidence: 15.0%
Total, Groups A-D, N = 40
  Drug related TEAE (patients/episodes): (25/52)
  Incidence of AEs: Drug related TEAE: 62.5%
  Incidence of AEs: TEAE: 67.5%
  TEAE (patients/episodes): (27/57)
Total, Groups A-D, grade 1
  Hyperglycemia (unexpected adverse reaction), number of cases: 6 cases
  Unexpected adverse reactions, number of cases: 7 cases
Total, Groups A-D, severity all grade 1
  Elevated transaminases, number of cases: 7 cases
Administered continuously for 14 days in asymptomatic healthy people with positive Helicobacter pylori infection
  Safety and tolerability of the combination therapy: good safety and tolerability characteristics
Entire trial, Groups A-D
  Serious adverse events (SAE): no SAE
